Laboratory results: patent US20240101528A1, “SUBSTITUTED PYRAZOLO PIPERIDINE CARBOXYLIC ACIDS” (BAYER AKTIENGESELLSCHAFT, priority 2020, published 2024)
Structures can show the parent of a compound that is named as a salt.

Molecular target: T1, recombinant guanylate cyclase reporter cell line (Rattus norvegicus, UniProt P20595)
T1 construct: expressed in transfected cells
T1 sequence (P20595 1-619): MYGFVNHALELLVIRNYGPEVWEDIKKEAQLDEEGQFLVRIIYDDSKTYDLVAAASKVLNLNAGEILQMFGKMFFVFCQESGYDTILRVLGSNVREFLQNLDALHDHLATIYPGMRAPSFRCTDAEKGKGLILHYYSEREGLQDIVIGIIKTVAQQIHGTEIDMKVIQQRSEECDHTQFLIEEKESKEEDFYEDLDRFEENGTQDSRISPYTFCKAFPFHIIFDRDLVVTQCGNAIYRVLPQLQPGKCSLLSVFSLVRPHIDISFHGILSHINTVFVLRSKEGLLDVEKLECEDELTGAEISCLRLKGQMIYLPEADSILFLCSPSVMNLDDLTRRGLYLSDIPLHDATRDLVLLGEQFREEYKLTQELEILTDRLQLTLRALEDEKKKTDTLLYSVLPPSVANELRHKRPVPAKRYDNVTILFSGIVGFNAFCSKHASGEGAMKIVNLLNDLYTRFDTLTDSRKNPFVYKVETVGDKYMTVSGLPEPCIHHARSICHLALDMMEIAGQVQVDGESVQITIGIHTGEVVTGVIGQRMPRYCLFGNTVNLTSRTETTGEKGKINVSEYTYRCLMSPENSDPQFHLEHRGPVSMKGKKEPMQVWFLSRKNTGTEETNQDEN
T1 sequence (P19686 1-690 partner): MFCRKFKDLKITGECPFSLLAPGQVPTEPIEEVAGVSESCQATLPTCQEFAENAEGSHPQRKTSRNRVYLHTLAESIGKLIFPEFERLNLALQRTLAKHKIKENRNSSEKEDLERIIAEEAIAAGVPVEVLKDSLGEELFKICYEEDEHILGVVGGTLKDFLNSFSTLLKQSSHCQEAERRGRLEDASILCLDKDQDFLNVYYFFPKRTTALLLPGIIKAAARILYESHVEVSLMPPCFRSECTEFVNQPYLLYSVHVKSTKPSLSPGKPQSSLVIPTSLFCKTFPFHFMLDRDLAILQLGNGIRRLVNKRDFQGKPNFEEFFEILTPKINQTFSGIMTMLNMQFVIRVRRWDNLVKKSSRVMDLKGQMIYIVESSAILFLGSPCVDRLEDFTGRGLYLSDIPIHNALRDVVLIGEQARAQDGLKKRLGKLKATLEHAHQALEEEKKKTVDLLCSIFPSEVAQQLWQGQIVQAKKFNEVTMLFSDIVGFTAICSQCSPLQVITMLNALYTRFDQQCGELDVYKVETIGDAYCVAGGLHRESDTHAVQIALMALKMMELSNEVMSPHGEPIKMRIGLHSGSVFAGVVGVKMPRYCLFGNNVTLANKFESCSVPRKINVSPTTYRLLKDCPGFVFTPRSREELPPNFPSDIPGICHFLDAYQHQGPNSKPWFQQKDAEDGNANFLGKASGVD
Assay: Effect on a recombinant guanylate cyclase reporter cell line
Type: cell-based
Conditions: for EC50: half maximal effective concentration; for MEC: minimum effective concentration
Description: B-1. Effect on a Recombinant Guanylate Cyclase Reporter Cell Line
The cellular activity of the compounds according to the invention was determined using a recombinant guanylate cyclase reporter cell line, as described in F. Wunder et al., Anal. Biochem. 339, 104-112 (2005).

EC50 | MEC | SMILES
71 nM | 30.0 nM | O=C(O)c1cnn(C2CCCN(c3cc(Cl)ccc3-c3ccc(N4CCN(C5COC5)CC4)cc3)C2)c1C(F)F (single isomer, unassigned; enantiomer 1) [Example 42, 1-(1-{4-Chloro-4′-[4-(oxetan-3-yl)piperazin-1-yl][biphenyl]-2-yl}piperidin-3-yl)-5-(difluoromethyl)-1H-pyrazole-4-carboxylic acid hydrochloride (Enantiomer 1)]
8.7 nM | 3.0 nM | O=C(O)c1cnn(C2CCCN(c3cc(Cl)ccc3-c3ccc(C4CN(CCC(F)(F)F)C4)cc3)C2)c1C(F)F (single isomer, unassigned; enantiomer 2) [Example 59, 1-(1-{4-Chloro-4′-[1-(3,3,3-trifluoropropyl)azetidin-3-yl][biphenyl]-2-yl}piperidin-3-yl)-5-(difluoromethyl)-1H-pyrazole-4-carboxylic acid hydrochloride (Enantiomer 2)]
79.5 nM | 10.0 nM | CCN1CCN(c2ccc(-c3ccc(C(F)(F)F)cc3N3CCCC(n4ncc(C(=O)O)c4C(F)F)C3)cc2)CC1 (single isomer, unassigned; enantiomer 2) [Example 74, 5-(Difluoromethyl)-1-{1-[4′-(4-ethylpiperazin-1-yl)-4-(trifluoromethyl)[biphenyl]-2-yl]piperidin-3-yl}-1H-pyrazole-4-carboxylic acid hydrochloride (Enantiomer 2)]
66 nM | 10.0 nM | CCN1CCN(c2ccc(-c3ccc(C(F)(F)F)cc3N3CCCC(n4ncc(C(=O)O)c4C(F)F)C3)cc2)CC1 (single isomer, unassigned; enantiomer 1) [Example 73, 5-(Difluoromethyl)-1-{1-[4′-(4-ethylpiperazin-1-yl)-4-(trifluoromethyl)[biphenyl]-2-yl]piperidin-3-yl}-1H-pyrazole-4-carboxylic acid hydrochloride (Enantiomer 1)]
< 1 nM | 0.3 nM | O=C(O)c1cnn(C2CCCN(c3cc(Cl)ccc3-c3ccc(N4CCN(CC(F)F)CC4)cc3)C2)c1C(F)F (single isomer, unassigned; enantiomer 1) [Example 18, 1-[1-{4-Chloro-4′-[4-(2,2-difluoroethyl)piperazin-1-yl][biphenyl]-2-yl}piperidin-3-yl]-5-(difluoromethyl)-1H-pyrazole-4-carboxylic acid hydrochloride (Enantiomer 1)]
1.9 nM | 0.3 nM | O=C(O)c1cnn(C2CCCN(c3cc(Cl)ccc3-c3ccc(N4CCN(C(=O)C5CC5)CC4)cc3)C2)c1C(F)F (single isomer, unassigned; enantiomer 2) [Example 50, 1-(1-{4-Chloro-4′-[4-(3-cyclopropylcarbonyl)piperazin-1-yl][biphenyl]-2-yl}piperidin-3-yl)-5-(difluoromethyl)-1H-pyrazole-4-carboxylic acid (Enantiomer 2)]
24.6 nM | 3.0 nM | CCN1CCN(c2ccc(-c3ccc(Cl)cc3N3CCCC(n4ncc(C(=O)O)c4C(F)F)C3)cc2)CC1 (single isomer, unassigned; enantiomer 1) [Example 3, 1-{1-[4-Chloro-4′-(4-ethylpiperazin-1-yl)[biphenyl]-2-yl]piperidin-3-yl}-5-(difluoromethyl)-1H-pyrazole-4-carboxylic acid hydrochloride (Enantiomer 1)]
36.5 nM | 3.0 nM | O=C(O)c1cnn(C2CCCN(c3cc(Cl)ccc3-c3ccc(N4CCN(C5CC5)CC4)cc3)C2)c1C(F)F (single isomer, unassigned; enantiomer 2) [Example 9, 1-{1-[4-Chloro-4′-(4-cyclopropylpiperazin-1-yl)[biphenyl]-2-yl]piperidin-3-yl}-5-(difluoromethyl)-1H-pyrazole-4-carboxylic acid hydrochloride (Enantiomer 2)]
68 nM | 10.0 nM | O=C(O)c1cnn(C2CCCN(c3cc(Cl)ccc3-c3ccc(N4CCN(CC5CC5)CC4)nc3)C2)c1C(F)F (single isomer, unassigned; enantiomer 2) [Example 63, 1-[1-(5-Chloro-2-{6-[4-(cyclopropylmethyl)piperazin-1-yl]pyridin-3-yl}phenyl)piperidin-3-yl]-5-(difluoromethyl)-1H-pyrazole-4-carboxylic acid hydrochloride (Enantiomer 2)]
28.5 nM | 10.0 nM | CCCN1CCN(c2ccc(-c3ccc(Cl)cc3N3CCCC(n4ncc(C(=O)O)c4C(F)F)C3)cn2)CC1 (single isomer, unassigned; enantiomer 2) [Example 61, 1-(1-{5-Chloro-2-[6-(4-propylpiperazin-1-yl)pyridin-3-yl]phenyl}piperidin-3-yl)-5-(difluoromethyl)-1H-pyrazole-4-carboxylic acid hydrochloride (Enantiomer 2)]
13.2 nM | 1.0 nM | O=C(O)c1cnn(C2CCCN(c3cc(Cl)ccc3-c3ccc(N4CCN(CC5CCC5)CC4)cc3)C2)c1C(F)F (single isomer, unassigned; enantiomer 2) [Example 14, 1-[1-{4-Chloro-4′-[4-(cyclobutylmethyl)piperazin-1-yl][biphenyl]-2-yl}piperidin-3-yl]-5-(difluoromethyl)-1H-pyrazole-4-carboxylic acid hydrochloride (Enantiomer 2)]
96.5 nM | 10.0 nM | CN1CCN(c2ccc(-c3ccc(Cl)cc3N3CCCC(n4ncc(C(=O)O)c4C(F)F)C3)cc2)CC1 (single isomer, unassigned; enantiomer 1) [Example 1, 1-{1-[4-Chloro-4′-(4-methylpiperazin-1-yl)[biphenyl]-2-yl]piperidin-3-yl}-5-(difluoromethyl)-1H-pyrazole-4-carboxylic acid hydrochloride (Enantiomer 1)]
1.9 nM | 1.0 nM | O=C(O)c1cnn(C2CCCN(c3cc(Cl)ccc3-c3ccc(N4CCN(CC(F)(F)F)CC4)nc3)C2)c1C(F)F (single isomer, unassigned; enantiomer 1) [Example 64, 1-[1-(5-Chloro-2-{6-[4-(2,2,2-trifluoroethyl)piperazin-1-yl]pyridin-3-yl}phenyl)piperidin-3-yl]-5-(difluoromethyl)-1H-pyrazole-4-carboxylic (Enantiomer 1)]
1 nM | <0.3 nM | O=C(O)c1cnn(C2CCCN(c3cc(Cl)ccc3-c3ccc(N4CCN(CCC(F)F)CC4)cc3)C2)c1C(F)F (single isomer, unassigned; enantiomer 2) [Example 22, 1-(1-{4-Chloro-4′-[4-(3,3-difluoropropyl)piperazin-1-yl][biphenyl]-2-yl}piperidin-3-yl)-5-(difluoromethyl)-1H-pyrazole-4-carboxylic acid hydrochloride (Enantiomer 2)]
70 nM | 30.0 nM | CCN1CCN(c2ccc(-c3ccc(Cl)cc3N3CCCC(n4ncc(C(=O)O)c4C(F)F)C3)cn2)CC1 (single isomer, unassigned; enantiomer 2) [Example 60, 1-(1-{5-Chloro-2-[6-(4-ethylpiperazin-1-yl)pyridin-3-yl]phenyl}piperidin-3-yl)-5-(difluoromethyl)-1H-pyrazole-4-carboxylic acid hydrochloride (Enantiomer 2)]
0.8 nM | 0.3 nM | O=C(O)c1cnn(C2CCCN(c3cc(Cl)ccc3-c3ccc(N4CCN(CC5CC5(F)F)CC4)cc3)C2)c1C(F)F (single isomer, unassigned; diastereomer 1) [Example 28, 1-{1-[4-Chloro-4′-(4-{[2,2-difluorocyclopropyl]methyl}piperazin-1-yl)[biphenyl]-2-yl]piperidin-3-yl}-5-(difluoromethyl)-1H-pyrazole-4-carboxylic acid hydrochloride (Diastereomer 1)]
